Measurements as given in ChEMBL document CHEMBL3885861, “Open TG-GATES”.

Organism: Rattus norvegicus
Test: Open TG-GATES - Regimen: Daily Repeat
Type: toxicity, organism-based, Sprague-Dawley
Parameters: regimen Daily Repeat, gender Male, age 6 weeks
Conditions: in vivo, po, 100 mg/kg, […], route gavage, dose level Middle; for KIDNEY_L / KIDNEY_R / KIDNEY_TOTAL: tissue Kidney; for LIVER: tissue Liver; for A/G / ALP / ALT / AST / BUN / CRE / Ca / Cl / DBIL / GLC / IP / K / LDH / Na / PL / RALB / TBIL / TC / TG / TP / gamma-GTP: tissue Plasma

`CCOC(=O)C(C)(C)Oc1ccc(Cl)cc1` [CLOFIBRATE] was tested, and the Lym (tissue Blood, time 28 day) was 83.8%, the MCH (tissue Blood, time 28 day) was 19.1 pg and the MCHC (tissue Blood, time 28 day) was 35.1%. The MCV (tissue Blood, time 28 day) was 54.3 fL, the Mono (tissue Blood, time 28 day) was 2% and the Neu (tissue Blood, time 28 day) was 12.8%. It also gave a PT (tissue Blood, time 28 day) of 12.1 s, a Plat (tissue Blood, time 28 day) of 110.4 x10_4/uL and an RBC (tissue Blood, time 28 day) of 769.4 x10_4/ul. For the same compound, the Ret (tissue Blood, time 28 day) was 2.1%, the WBC (tissue Blood, time 28 day) was 141.2 x10_2/uL and the KIDNEY_L (time 7 day) was 1.1 g. For the same compound, the KIDNEY_R (time 7 day) was 1.2 g, the KIDNEY_TOTAL (time 7 day) was 2.3 g and the KIDNEY_L (time 14 day) was 1.3 g. The KIDNEY_R (time 14 day) was 1.3 g, the KIDNEY_TOTAL (time 14 day) was 2.6 g and the KIDNEY_L (time 28 day) was 1.5 g. The KIDNEY_R (time 28 day) was 1.5 g, the KIDNEY_TOTAL (time 28 day) was 3 g and the LIVER (time 7 day) was 14.5 g. It also gave an LIVER (time 14 day) of 17 g, an LIVER (time 28 day) of 20.1 g and an A/G (time 7 day) of 1.9. The ALP (time 7 day) was 856.8 IU/L, the ALT (time 7 day) was 32.8 IU/L and the AST (time 7 day) was 61 IU/L. It also gave a BUN (time 7 day) of 16.8 mg/dL, a CRE (time 7 day) of 0.4 mg/dL and a Ca (time 7 day) of 10.4 mg/dL. It also gave a Cl (time 7 day) of 102.8 meq/L, a DBIL (time 7 day) of 0.07 mg/dL and a GLC (time 7 day) of 211.2 mg/dL. The IP (time 7 day) was 7.3 mg/dL, the K (time 7 day) was 3.5 meq/L and the LDH (time 7 day) was 207.2 IU/L. The Na (time 7 day) was 141 meq/L, the PL (time 7 day) was 108.8 mg/dL and the RALB (time 7 day) was 3.7 g/dL. The TBIL (time 7 day) was 0.1 mg/dL, the TC (time 7 day) was 49.8 mg/dL and the TG (time 7 day) was 53.4 mg/dL. It also gave a TP (time 7 day) of 5.6 g/dL, a gamma-GTP (time 7 day) of 1 IU/L and an A/G (time 14 day) of 1.7. The ALP (time 14 day) was 933 IU/L, the ALT (time 14 day) was 38.4 IU/L and the AST (time 14 day) was 63.4 IU/L. For the same compound, the BUN (time 14 day) was 16.4 mg/dL, the CRE (time 14 day) was 0.4 mg/dL and the Ca (time 14 day) was 10.2 mg/dL. It also gave a Cl (time 14 day) of 101.8 meq/L, a DBIL (time 14 day) of 0.06 mg/dL and a GLC (time 14 day) of 223.8 mg/dL. For the same compound, the IP (time 14 day) was 6.1 mg/dL, the K (time 14 day) was 3.8 meq/L and the LDH (time 14 day) was 183.8 IU/L. It also gave a Na (time 14 day) of 140.4 meq/L, a PL (time 14 day) of 120.2 mg/dL and an RALB (time 14 day) of 3.5 g/dL. The TBIL (time 14 day) was 0.1 mg/dL, the TC (time 14 day) was 55 mg/dL and the TG (time 14 day) was 63.4 mg/dL. For the same compound, the TP (time 14 day) was 5.6 g/dL, the gamma-GTP (time 14 day) was 1 IU/L and the A/G (time 28 day) was 1.7. It also gave an ALP (time 28 day) of 726.6 IU/L, an ALT (time 28 day) of 38.2 IU/L and an AST (time 28 day) of 71 IU/L. It also gave a BUN (time 28 day) of 15.8 mg/dL, a CRE (time 28 day) of 0.4 mg/dL and a Ca (time 28 day) of 10.5 mg/dL. For the same compound, the Cl (time 28 day) was 102.4 meq/L, the DBIL (time 28 day) was 0.08 mg/dL and the GLC (time 28 day) was 208.6 mg/dL. It also gave an IP (time 28 day) of 6.1 mg/dL, a K (time 28 day) of 3.6 meq/L and an LDH (time 28 day) of 236.8 IU/L. For the same compound, the Na (time 28 day) was 141 meq/L, the PL (time 28 day) was 132 mg/dL and the RALB (time 28 day) was 3.8 g/dL. The TBIL (time 28 day) was 0.1 mg/dL, the TC (time 28 day) was 54.8 mg/dL and the TG (time 28 day) was 106.2 mg/dL. The TP (time 28 day) was 6 g/dL and the gamma-GTP (time 28 day) was 1 IU/L.
